Test results: patent US20230363954A1, “METHOD FOR MAKING AN ABSORBENT ARTICLE AND ABSORBENT ARTICLE” (The Procter & Gamble Company, priority 2022, published 2023)
Read-outs that look alike come from different tables or passages of the source.

Biological target: T1, Jack Bean Urease (Canavalia ensiformis, UniProt P07374)
T1 construct: purchased Millipore Sigma U1500
Type: biochemical
Conditions: for Urease inhibition (in words): 0.1 g in synthetic urine with urease
Protocol: To test the efficiency of different Green Tea Extracts, three different samples were tested: • Sample 1′: pure EGCG: Cas. […] 84650-60-2, EC no. […] The test procedure per sample and for a reference without Green Tea Extract was the following, all steps were performed at ambient lab temperature (23±1° C.) and atmospheric pressure:
Synthetic Urine is prepared by dissolving 2% w/w urea, 0.9% w/w sodium chloride, 0.11% w/w magnesium sulfate monohydrate, 0.079% w/w calcium chloride monohydrate in deionized water. Urease stock solution (23.5 U/ml) is made by dissolving Jack Bean Urease (Catalog number U1500, Millipore Sigma, St. Louis, MO, USA, or equivalent) in deionized water.
67.5 ml of Synthetic urine were added to a beaker and the pH of the Synthetic urine (Urine pH) was determined analogously to the Urease Activity test method described above (Urine pH).
0.1 g of the corresponding Green Tea Extract—except for the reference sample—were added to the beaker and the solution stirred for 15 min. Afterwards the pH of the solution is determined.
7.5 ml of the Urease stock solution were added and the pH was monitored, while the stirring of the solution was maintained.
From the values, the difference in pH mediated by Urease was calculated from the difference of the pH of the Synthetic urine and the final pH determined after addition of the Urease stock.

T1 sequence (P07374 whole entry, looked up): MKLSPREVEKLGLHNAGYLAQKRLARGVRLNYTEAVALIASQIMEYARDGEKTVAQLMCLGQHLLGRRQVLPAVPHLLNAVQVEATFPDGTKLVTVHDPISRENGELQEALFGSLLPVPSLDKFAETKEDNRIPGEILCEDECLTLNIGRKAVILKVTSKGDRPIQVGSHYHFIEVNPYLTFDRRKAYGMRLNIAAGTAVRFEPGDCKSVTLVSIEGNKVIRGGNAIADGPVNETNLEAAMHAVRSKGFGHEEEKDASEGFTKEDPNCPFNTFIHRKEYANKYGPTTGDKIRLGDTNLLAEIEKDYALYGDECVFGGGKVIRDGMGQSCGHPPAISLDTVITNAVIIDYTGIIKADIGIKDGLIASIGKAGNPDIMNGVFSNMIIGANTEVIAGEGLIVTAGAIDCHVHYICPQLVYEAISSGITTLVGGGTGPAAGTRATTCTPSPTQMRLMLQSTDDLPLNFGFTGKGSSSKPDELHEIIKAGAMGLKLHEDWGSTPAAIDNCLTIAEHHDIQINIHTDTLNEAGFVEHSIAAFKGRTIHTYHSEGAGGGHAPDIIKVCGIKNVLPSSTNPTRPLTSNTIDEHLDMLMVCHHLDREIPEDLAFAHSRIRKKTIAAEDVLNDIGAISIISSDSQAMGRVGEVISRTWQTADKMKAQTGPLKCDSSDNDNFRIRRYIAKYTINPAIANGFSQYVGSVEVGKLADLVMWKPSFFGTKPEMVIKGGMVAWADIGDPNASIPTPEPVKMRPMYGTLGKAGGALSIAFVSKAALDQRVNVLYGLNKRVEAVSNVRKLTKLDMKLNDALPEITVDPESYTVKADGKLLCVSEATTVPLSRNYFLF

Compound: O=C(O[C@@H]1Cc2c(O)cc(O)cc2O[C@@H]1c1cc(O)c(O)c(O)c1)c1cc(O)c(O)c(O)c1 [Sample 1′, Epigallocatechin gallate]
- Green Tea pH (0.1 g in 67.5 ml Synthetic urine, stirred 15 min, before urease addition): 5.7
- Urease inhibition (in words): inhibit Urease
- Urease inhibition (in words) (listed as EGCG): less efficient in its pure form
- End pH (after adding 7.5 ml Urease stock solution (23.5 U/ml), pH stabilized (typically 15 to 30 min)): 7.7
- pH difference (final pH minus pH of the Synthetic urine): 1.2
